IC50 data for 62 compounds are collected here from the Kinase Knowledgebase extract (Sharma et al. 2016).

The structures appear in SMILES notation.

The target of assay [1] is EGFR (human), P00533 [WT].
Assay [2] deals with EGFR (Human), P00533 [T790M/L858R].
A further assay deals with EGFR (human) (UniProt P00533).
For assay [3], the target named is EGFR (human), P00533 [T790M].
Sequence of EGFR (human), P00533 [T790M] (P00533 whole entry T790M, looked up): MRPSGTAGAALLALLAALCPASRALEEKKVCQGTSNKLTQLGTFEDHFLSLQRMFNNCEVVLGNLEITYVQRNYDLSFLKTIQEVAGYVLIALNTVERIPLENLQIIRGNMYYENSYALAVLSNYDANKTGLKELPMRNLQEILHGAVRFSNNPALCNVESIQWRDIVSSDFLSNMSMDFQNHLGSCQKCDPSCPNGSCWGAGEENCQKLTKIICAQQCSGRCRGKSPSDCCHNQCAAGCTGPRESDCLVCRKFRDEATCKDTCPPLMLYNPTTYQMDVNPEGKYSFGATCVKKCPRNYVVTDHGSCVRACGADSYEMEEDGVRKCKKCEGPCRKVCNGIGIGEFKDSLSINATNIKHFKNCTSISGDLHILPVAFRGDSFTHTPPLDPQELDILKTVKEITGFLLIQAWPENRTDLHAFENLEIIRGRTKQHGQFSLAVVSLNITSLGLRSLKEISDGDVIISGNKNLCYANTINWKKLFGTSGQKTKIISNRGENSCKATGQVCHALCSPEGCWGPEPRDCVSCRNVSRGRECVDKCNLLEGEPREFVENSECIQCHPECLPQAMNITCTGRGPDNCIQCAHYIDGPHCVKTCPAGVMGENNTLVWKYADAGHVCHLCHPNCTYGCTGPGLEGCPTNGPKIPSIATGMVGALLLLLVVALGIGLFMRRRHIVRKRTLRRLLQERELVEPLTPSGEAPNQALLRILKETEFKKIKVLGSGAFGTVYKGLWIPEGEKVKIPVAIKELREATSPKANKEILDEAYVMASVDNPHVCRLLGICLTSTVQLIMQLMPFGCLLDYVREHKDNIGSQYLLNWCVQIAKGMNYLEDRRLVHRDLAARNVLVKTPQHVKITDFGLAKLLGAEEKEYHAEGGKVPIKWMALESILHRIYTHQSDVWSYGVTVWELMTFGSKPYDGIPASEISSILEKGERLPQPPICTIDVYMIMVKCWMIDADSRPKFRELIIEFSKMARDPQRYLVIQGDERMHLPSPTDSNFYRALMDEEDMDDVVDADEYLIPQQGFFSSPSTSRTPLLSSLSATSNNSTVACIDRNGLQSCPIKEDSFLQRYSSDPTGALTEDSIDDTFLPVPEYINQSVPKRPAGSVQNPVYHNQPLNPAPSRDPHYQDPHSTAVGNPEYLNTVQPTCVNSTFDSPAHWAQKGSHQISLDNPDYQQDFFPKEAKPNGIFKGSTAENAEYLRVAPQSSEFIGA

Sequence of EGFR (human), P00533 [WT] (P00533 whole entry, looked up): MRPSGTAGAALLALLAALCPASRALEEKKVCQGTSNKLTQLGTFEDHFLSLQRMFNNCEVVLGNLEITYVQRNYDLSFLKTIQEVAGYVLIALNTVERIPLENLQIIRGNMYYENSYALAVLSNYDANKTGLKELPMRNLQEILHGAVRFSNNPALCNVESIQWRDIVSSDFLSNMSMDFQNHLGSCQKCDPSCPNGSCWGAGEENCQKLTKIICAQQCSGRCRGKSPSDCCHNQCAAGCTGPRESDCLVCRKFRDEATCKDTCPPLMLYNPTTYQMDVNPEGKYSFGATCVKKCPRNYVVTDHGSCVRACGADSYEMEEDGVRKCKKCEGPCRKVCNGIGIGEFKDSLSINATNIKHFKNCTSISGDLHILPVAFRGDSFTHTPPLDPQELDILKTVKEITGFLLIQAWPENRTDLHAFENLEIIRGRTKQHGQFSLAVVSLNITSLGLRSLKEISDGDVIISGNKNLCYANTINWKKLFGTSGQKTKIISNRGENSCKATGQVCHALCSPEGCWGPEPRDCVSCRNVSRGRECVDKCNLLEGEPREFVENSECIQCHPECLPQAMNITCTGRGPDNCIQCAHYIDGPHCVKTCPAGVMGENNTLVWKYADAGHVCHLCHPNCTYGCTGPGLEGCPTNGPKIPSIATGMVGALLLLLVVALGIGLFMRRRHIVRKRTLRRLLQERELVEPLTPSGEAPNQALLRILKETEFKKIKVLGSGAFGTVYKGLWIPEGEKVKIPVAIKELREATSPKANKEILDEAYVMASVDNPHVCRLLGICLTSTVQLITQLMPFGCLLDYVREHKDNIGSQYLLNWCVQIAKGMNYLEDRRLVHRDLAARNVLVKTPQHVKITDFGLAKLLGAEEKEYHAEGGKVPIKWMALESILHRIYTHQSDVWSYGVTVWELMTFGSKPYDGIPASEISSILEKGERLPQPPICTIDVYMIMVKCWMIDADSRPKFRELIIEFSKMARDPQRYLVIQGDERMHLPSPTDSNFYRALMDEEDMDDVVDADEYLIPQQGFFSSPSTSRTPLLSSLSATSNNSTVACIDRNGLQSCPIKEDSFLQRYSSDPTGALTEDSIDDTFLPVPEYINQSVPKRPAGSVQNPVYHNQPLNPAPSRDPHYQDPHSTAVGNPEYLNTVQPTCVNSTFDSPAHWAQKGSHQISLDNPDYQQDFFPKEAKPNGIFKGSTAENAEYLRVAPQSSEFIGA
Sequence of EGFR (Human), P00533 [T790M/L858R] (P00533 whole entry T790M/L858R, looked up): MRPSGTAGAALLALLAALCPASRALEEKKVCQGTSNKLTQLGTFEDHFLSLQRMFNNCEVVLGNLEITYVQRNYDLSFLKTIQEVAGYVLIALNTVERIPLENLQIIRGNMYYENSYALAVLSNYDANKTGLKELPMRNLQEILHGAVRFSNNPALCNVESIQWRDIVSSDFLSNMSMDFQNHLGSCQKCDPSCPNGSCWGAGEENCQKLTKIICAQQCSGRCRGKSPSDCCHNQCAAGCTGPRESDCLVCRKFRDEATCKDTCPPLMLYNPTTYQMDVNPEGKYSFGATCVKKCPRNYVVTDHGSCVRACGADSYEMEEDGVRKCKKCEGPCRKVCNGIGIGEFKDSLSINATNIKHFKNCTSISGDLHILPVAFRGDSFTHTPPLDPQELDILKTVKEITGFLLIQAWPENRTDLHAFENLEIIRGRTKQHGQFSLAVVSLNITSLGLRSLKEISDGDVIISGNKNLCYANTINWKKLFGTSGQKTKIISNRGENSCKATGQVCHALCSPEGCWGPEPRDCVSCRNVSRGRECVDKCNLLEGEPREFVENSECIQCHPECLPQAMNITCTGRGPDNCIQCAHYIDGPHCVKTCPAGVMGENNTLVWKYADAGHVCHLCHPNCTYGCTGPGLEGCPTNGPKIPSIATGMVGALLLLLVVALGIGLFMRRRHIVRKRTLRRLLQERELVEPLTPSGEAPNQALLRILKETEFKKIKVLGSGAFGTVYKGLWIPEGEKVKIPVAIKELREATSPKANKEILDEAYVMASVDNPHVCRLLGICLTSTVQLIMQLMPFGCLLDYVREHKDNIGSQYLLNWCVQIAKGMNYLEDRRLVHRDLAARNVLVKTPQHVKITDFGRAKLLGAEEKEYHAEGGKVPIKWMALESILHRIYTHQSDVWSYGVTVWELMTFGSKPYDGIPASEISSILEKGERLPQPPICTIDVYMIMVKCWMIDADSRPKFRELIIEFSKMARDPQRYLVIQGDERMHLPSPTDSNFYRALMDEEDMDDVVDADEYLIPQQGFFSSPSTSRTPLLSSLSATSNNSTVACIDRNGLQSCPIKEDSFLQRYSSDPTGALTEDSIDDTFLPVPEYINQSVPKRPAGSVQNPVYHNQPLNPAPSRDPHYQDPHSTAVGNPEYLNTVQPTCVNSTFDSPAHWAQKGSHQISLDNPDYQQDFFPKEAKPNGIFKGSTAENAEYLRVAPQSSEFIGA
Sequence of EGFR (human) (P00533 whole entry, looked up): as the sequence (P00533 whole entry, looked up) above

As usually defined, the IC50 is the concentration that inhibits the measured activity by half. A low value points to higher potency. For `C=CC(=O)Nc1ccc(Nc2nc(Nc3ccc(OC)nc3)ncc2C(F)(F)F)cc1`, the IC50 in assay [1] was at most 10 nM.

In the case of `C=CC(=O)Nc1cccc(Oc2nc(Nc3cccc(OCC4CCN(C)CC4)c3)ncc2F)c1`, in assay [1], the IC50 was at most 10 nM.

For the compound `C=CC(=O)Nc1cccc(Oc2nc(Nc3ccc(OC)nc3)ncc2C(=O)NC2CC2)c1`, the IC50 in assay [1] was at most 10 nM.

In turn, `C=CC(=O)Nc1cccc(Nc2nc(Nc3cccc(OCCN(C)C)c3)ncc2F)c1` came in with an IC50 in assay [1] of at most 10 nM.

As for `C=CC(=O)Nc1cccc(Nc2nc(Nc3ccccc3)ncc2C(F)(F)F)c1`, in assay [1], the IC50 is at most 10 nM.

For `C=CC(=O)Nc1cccc(Oc2nc(Nc3ccccc3)ncc2C)c1`, the IC50 in assay [1] is at most 10 nM.

`C=CC(=O)Nc1ccc(C)c(Nc2ncc(C)c(Nc3cccc(C)c3)n2)c1`: the IC50 in assay [2] and in assay [1] was at most 10 nM in each case.

In assay [1], `C=CC(=O)Nc1cccc(Nc2nc(Nc3ccc(OCCCNC(=O)OC(C)(C)C)cc3)ncc2F)c1` registered an IC50 of at most 10 nM.

`Cc1cnc(Nc2ccccc2)nc1Nc1cccc(NC(=O)/C=C/CN(C)C)c1` came in with an IC50 in assay [2] of at most 10 nM.

`C=CC(=O)Nc1cccc(Nc2nc(Nc3ccc(OCCOC)cc3)ncc2F)c1`: the IC50 in assay [1] is at most 10 nM.

Take `C=CC(=O)Nc1ccc(C)c(Nc2nccc(-c3cccnc3)n2)c1`: the IC50 on EGFR (human) was 2.23 nM; in assay [2] it was at most 10 nM.

Turning to `C=CC(=O)Nc1cccc(Nc2nc(Nc3cccc(OCCCN4CCCC4=O)c3)ncc2F)c1`, in assay [1], the IC50 was at most 10 nM.

Regarding `Cc1cccc(Nc2nc(Nc3cccc(NC(=O)/C=C/CN(C)C)c3)ncc2F)c1`, the IC50 in assay [2], in assay [1] and in assay [3] was at most 10 nM in each case.

For the compound `C=CC(=O)Nc1cccc(Nc2nccc(Nc3cccc(C)c3)n2)c1`, the IC50 in assay [2] and in assay [1] was at most 10 nM in each case.

Compound `C=CC(=O)Nc1cccc(Nc2nc(Nc3ccc(N4CCS(=O)(=O)CC4)nc3)ncc2F)c1` had an IC50 in assay [1] of at most 10 nM.

In turn, `C=CC(=O)N1CCOc2ccc(Nc3nc(Nc4ccc(OCCOC)cc4)ncc3C(C)=O)cc21` yielded an IC50 in assay [1] of at most 10 nM.

Compound `C=CC(=O)Nc1cccc(Oc2nc(Nc3cccc(OCC4CCCN(C)C4)c3)ncc2F)c1` (centres undefined) came in with an IC50 in assay [1] of at most 10 nM.

As to `C=CC(=O)Nc1cccc(Oc2nc(Nc3cccc(OCCN4CCCC4=O)c3)ncc2F)c1`, the IC50 in assay [1] was at most 10 nM.

As for `C=CC(=O)Nc1cccc(Oc2nc(Nc3cccc(OC)c3)ncc2C(=O)Nc2ccccc2)c1`, in assay [1], the IC50 was at most 10 nM.

In turn, `C=C(C)C(=O)Cc1cccc(Nc2nc(Nc3ccc(OCCOC)c(F)c3)ncc2F)c1` returned an IC50 in assay [1] of at most 10 nM.

For the compound `C=CC(=O)Nc1cccc(Oc2nc(Nc3cccc(OC)c3)ncc2C(=O)NC2CC2)c1`, the IC50 in assay [1] was at most 10 nM.

As to `Cc1cccc(Nc2nc(Nc3cccc(NC(=O)/C=C/CN4CC[C@H](O)C4)c3)ncc2F)c1`, the IC50 in assay [1] was at most 10 nM.

As to `C=CC(=O)Nc1cccc(Oc2nc(Nc3cccc(OCCCN4CCCC4=O)c3)ncc2F)c1`, in assay [1], the IC50 is at most 10 nM.

As to `C=CC(=O)Nc1cccc(Oc2nc(Nc3ccc(OC)nc3)ncc2C(C)=O)c1`, in assay [1], the half-maximal inhibitory concentration (IC50) is at most 10 nM.

As for `C=CC(=O)Nc1cccc(Nc2nc(Nc3cccc(OCC4CCCN(C)C4)c3)ncc2F)c1` (centres undefined), the IC50 in assay [1] was at most 10 nM.

Turning to `C=CC(=O)Nc1cccc(Nc2nc(Nc3ccc(OCCOC)c(F)c3)ncc2F)c1`, the IC50 in assay [2] and in assay [3] was at most 10 nM each time.

Consider `C=CC(=O)Nc1cccc(Oc2nc(Nc3cccc(OC)c3)ncc2C(N)=O)c1`, for which the IC50 in assay [1] was at most 10 nM.

Turning to `C=CC(=O)Nc1cccc(Nc2ncc(F)c(Nc3cccc(C)c3)n2)c1`, the IC50 in assay [2], in assay [1] and in assay [3] was at most 10 nM in each case.

`C=CC(=O)Nc1cccc(Nc2nc(Nc3cccc(CO)c3)ncc2F)c1` had an IC50 in assay [1] of at most 10 nM.

As to `C=CC(=O)Nc1cccc(Nc2nc(Nc3ccccc3)ncc2C)c1`, the IC50 in assay [2] and in assay [1] was at most 10 nM each time.

Regarding `C=CC(=O)Nc1cccc(Oc2nc(Nc3cccc(OCCCS(C)(=O)=O)c3)ncc2F)c1`, the IC50 in assay [1] was at most 10 nM.

Regarding `C=CC(=O)Nc1cccc(Nc2nc(Nc3ccc4c(c3)NCCO4)ncc2F)c1`, in assay [1], the IC50 was at most 10 nM.

In turn, `C=CC(=O)Nc1cccc(Nc2nc(Nc3ccccc3)ncc2C#N)c1` showed an IC50 in assay [1] of at most 10 nM.

In turn, `C=CC(=O)Nc1cccc(Nc2nc(Nc3ccc(OC)nc3)ncc2C2CC2)c1` came in with an IC50 in assay [1] of at most 10 nM.

In assay [1], `Cc1cccc(Nc2nc(Nc3cccc(NC(=O)/C=C/CN(C)C)c3)ncc2C)c1` yielded an IC50 of at most 10 nM.

In assay [1], `C=CC(=O)Nc1cccc(Nc2nc(Nc3cccc(OCC(O)CO)c3)ncc2F)c1` (centres undefined) had an IC50 of at most 10 nM.

The compound `C=CC(=O)Nc1cccc(Nc2nc(Nc3cccc(S(N)(=O)=O)c3)ncc2F)c1` came in with an IC50 in assay [1] of at most 10 nM.

In assay [1], `C=CC(=O)N1CCC[C@@H](Nc2nc(Nc3cccc(Cl)c3)ncc2F)C1` displayed an IC50 of at most 10 nM.

Regarding `C=CC(=O)Nc1cccc(Nc2ncc(C)c(Nc3cccc(C)c3)n2)c1`, the IC50 in assay [2] and in assay [3] was at most 10 nM each time.

With `C=CC(=O)Nc1cccc(Nc2nc(Nc3ccc(OCC(O)CO)c(F)c3)ncc2F)c1` (centres undefined), the IC50 in assay [1] was at most 10 nM.

Compound `C=CC(=O)Nc1cccc(Nc2nc(Nc3ccc4c(cnn4C)c3)ncc2F)c1` yielded an IC50 in assay [1] of at most 10 nM.

Turning to `C#CCOc1cccc(Nc2ncc(C)c(Nc3cccc(NC(=O)C=C)c3)n2)c1`, the IC50 in assay [2] was at most 10 nM.

The compound `C=CC(=O)Nc1cccc(Nc2nc(Nc3ccc(OCC4CCN(C)CC4)cc3)ncc2F)c1` showed an IC50 in assay [1] of at most 10 nM.

As for `Cc1cnc(Nc2cccc(S(N)(=O)=O)c2)nc1Nc1ccc2c(c1)CCN(C(=O)CCl)C2`, the IC50 in assay [2] and in assay [1] was at most 10 nM in each case.

For the compound `C=CC(=O)Nc1cccc(Nc2nc(Nc3ccc(OCCOC)c(F)c3)ncc2C#N)c1`, in assay [1], the IC50 is at most 10 nM.

In assay [1], `C=CC(=O)Nc1cccc(Nc2nc(Nc3ccc(OC)nc3)ncc2C#N)c1` yielded an IC50 of at most 10 nM.

`C=CC(=O)Nc1cccc(Nc2nc(Nc3ccc(OCCOC)c(F)c3)ncc2C(F)(F)F)c1` registered an IC50 in assay [1] of at most 10 nM.

Turning to `C=CC(=O)Nc1cccc(Nc2nc(Nc3ccc4[nH]ncc4c3)ncc2F)c1`, the IC50 in assay [1] is at most 10 nM.

Regarding `C=CC(=O)Nc1cccc(Oc2nc(Nc3ccc(OC)nc3)ncc2C)c1`, the IC50 in assay [1] is at most 10 nM.

For the compound `C=CC(=O)Nc1cccc(Nc2nc(Nc3ccc(OCCOC)cc3)ncc2C#N)c1`, in assay [1], the IC50 was at most 10 nM.

In turn, `C=CC(=O)Nc1cccc(Nc2nc(Nc3cccc(OCC4CCN(C)CC4)c3)ncc2F)c1` had an IC50 in assay [1] of at most 10 nM.

With `Cc1cccc(Nc2nc(Nc3cccc(NC(=O)/C=C/CN4CC[C@@H](O)C4)c3)ncc2F)c1`, the IC50 in assay [1] was at most 10 nM.

In the case of `C=CC(=O)Nc1cccc(Nc2nc(Nc3cccc(S(N)(=O)=O)c3)ncc2C)c1`, the half-maximal inhibitory concentration (IC50) in assay [1] was at most 10 nM.

As to `C=CC(=O)Nc1cccc(Nc2nc(Nc3ccc(OCC(O)CO)cc3)ncc2F)c1` (centres undefined), the IC50 in assay [1] was at most 10 nM.

For `C=CC(=O)Nc1cccc(Nc2ncc(C)c(Nc3ccccc3)n2)c1`, the IC50 in assay [2] and in assay [1] was at most 10 nM in each case.

`C=CC(=O)Nc1cccc(Oc2nc(Nc3ccc(OCCOC)cc3)ncc2C2CC2)c1` returned an IC50 in assay [1] of at most 10 nM.

For the compound `C=CC(=O)Nc1cccc(Oc2nc(Nc3ccc(OC)nc3)ncc2C(=O)Nc2ccccc2)c1`, in assay [1], the IC50 was at most 10 nM.

Consider `C=CC(=O)Nc1cccc(Nc2nc(Nc3ccc(OCC4CCN(C)CC4)nc3)ncc2F)c1`, for which the IC50 in assay [1] was at most 10 nM.

The compound `C=CC(=O)N1CCOc2ccc(Nc3nc(Nc4ccc(N5CCOCC5)cc4)ncc3C(C)=O)cc21` registered an IC50 in assay [1] of at most 10 nM.

`COCCN(C)C/C=C/C(=O)Nc1cccc(Nc2ncc(F)c(Nc3cccc(C)c3)n2)c1` showed an IC50 in assay [1] of at most 10 nM.

`C=CC(=O)Nc1cccc(Oc2nc(Nc3cccc(N4CCN(CCO)CC4)c3)ncc2F)c1`: the IC50 in assay [1] is at most 10 nM.

Turning to `C=CC(=O)Nc1cccc(Nc2nc(Nc3ccc4c(c3)CC(=O)N4)ncc2F)c1`, the IC50 in assay [1] was at most 10 nM.
